One assay concerns the target T1, Zcchc11 enzyme (Homo sapiens, UniProt Q5TAX3).
T1 construct: made in house; host or cells: HEK293 cells (Zcchc11); E. coli Rosetta II (LIN28A)
T1 sequence (Q5TAX3 212-1420): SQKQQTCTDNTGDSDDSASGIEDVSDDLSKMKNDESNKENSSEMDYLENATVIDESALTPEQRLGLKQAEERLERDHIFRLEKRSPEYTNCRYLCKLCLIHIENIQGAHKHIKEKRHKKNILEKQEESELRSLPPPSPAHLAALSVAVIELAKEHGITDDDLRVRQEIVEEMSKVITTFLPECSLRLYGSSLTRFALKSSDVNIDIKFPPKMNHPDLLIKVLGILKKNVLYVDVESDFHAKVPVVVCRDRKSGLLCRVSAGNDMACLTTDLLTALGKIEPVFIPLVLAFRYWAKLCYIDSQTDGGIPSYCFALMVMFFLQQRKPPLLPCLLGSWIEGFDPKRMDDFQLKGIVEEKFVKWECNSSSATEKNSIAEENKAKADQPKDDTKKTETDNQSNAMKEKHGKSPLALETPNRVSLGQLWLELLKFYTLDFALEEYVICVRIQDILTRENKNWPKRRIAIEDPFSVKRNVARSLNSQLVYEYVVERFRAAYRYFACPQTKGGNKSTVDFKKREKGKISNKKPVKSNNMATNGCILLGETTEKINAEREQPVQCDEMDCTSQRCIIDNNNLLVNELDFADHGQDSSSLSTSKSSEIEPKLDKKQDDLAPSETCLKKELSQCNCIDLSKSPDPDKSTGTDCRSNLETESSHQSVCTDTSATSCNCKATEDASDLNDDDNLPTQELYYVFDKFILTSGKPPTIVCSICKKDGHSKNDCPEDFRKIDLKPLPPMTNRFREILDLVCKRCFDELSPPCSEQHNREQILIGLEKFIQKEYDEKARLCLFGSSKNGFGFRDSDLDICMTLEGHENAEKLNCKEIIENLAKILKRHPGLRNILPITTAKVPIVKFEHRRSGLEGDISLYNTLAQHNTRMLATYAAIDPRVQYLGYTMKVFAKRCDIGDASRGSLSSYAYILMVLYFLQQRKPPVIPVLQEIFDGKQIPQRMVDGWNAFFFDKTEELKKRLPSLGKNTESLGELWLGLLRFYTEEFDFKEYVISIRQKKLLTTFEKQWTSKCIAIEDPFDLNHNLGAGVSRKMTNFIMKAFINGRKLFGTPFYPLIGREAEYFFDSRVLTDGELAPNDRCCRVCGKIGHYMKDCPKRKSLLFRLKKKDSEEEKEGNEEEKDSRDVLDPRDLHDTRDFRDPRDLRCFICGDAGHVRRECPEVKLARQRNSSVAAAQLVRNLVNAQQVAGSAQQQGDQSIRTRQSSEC
Briefly: TUTase assay (Zcchc11 assay, Lin28a-dependent polyuridylation of pre-let-7). It is filed as biochemical. The conditions noted are these: LIN28A 10 nM, Zcchc11 0.2 nM, 5′-fluorescein pre-let-7 miRNA 2 nM, UTP 5 uM, room temperature, 30 minutes pre-incubation; read-out: Potency Lin28a-dep Z11 IC50. Summed up:
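Polyuridylation measured as fluorescein loss when a rhodamine-labelled A20 probe anneals to U-tails added to fluorescein pre-let-7 (2 nM). Reaction: truncated Zcchc11 0.2 nM, E. coli-made LIN28A 10 nM, UTP 5 uM, HEPES pH 7.3, room temperature. Initial rates fitted to four-parameter IC50.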
The term IC50 denotes the concentration that inhibits the measured activity by half. Turning to `Cc1cccnc1OC[C@H]1CCCN1c1cc2c(cc1C#N)c(=O)c(C(=O)O)cn2C1(C)CC1` [Example 35, 6-Cyano-1-(1-methylcyclopropyl)-7-[(2R)-2-{[(3-methylpyridin-2-yl)oxy]methyl}pyrrolidin-1-yl]-4-oxo-1,4-dihydroquinoline-3-carboxylic acid], the IC50 is at most 1 µM.

The same assay, now with this note: Lin28a-dependent Zcchc11 (Z11) TUTase activity; read-out: Potency Lin28a-dep Z11 IC50.
For the compound `O=C(O)c1cn(-c2ccc(Cl)c(O)c2)c2cc(N3CCC[C@@H]3COc3ncccc3Cl)ccc2c1=O` [Compound 171, (R)-1-(4-chloro-3-hydroxy-phenyl)-7-(2-(((3-chloropyridin-2-yl)oxy)methyl)pyrrolidin-1-yl)-4-oxo-1,4-dihydro-quinoline-3-carboxylic acid], the IC50 is over 50 µM. With `CN(C)c1ccc(Cl)c(OC[C@H]2C[C@@H]3C[C@@H]3N2c2cc3c(cc2F)c(=O)c(C(=O)O)cn3-c2ccc(N3CC(N(C)C)C3)nc2)n1` [Compound 335, 7-[(1S,3R,5S)-3-({[3-Chloro-6-(dimethyl-amino)pyridin-2-yl]oxy}methyl)-2-azabicyclo [3.1.0]hexan-2-yl]-1-{6-[3-(dimethyl-amino)azetidin-1-yl]pyridin-3-yl}-6-fluoro-4-oxoquinoline-3-carboxylic acid], the IC50 was at most 1 µM.

As for `Cc1cccnc1OC[C@H]1CCCN1c1cc2c(cc1F)c(=O)c(C(=O)O)cn2C1CC1` [Compound 102, (R)-1-cyclopropyl-6-fluoro-7-(2-(((3-methyl-pyridin-2-yl)oxy)methyl)pyrrolidin-1-yl)-4-oxo-1,4-dihydro-quinoline-3-carboxylic acid], the IC50 was at most 1 µM. For `CN(C)C1CN(c2ccc(-n3cc(C(=O)O)c(=O)c4cc(C#N)c(N5CCC[C@@H]5COc5ncccc5F)cc43)cn2)C1` [Compound 169, (R)-6-cyano-1-(6-(3-(dimethyl-amino)azetidin-1-yl)pyridin-3-yl)-7-(2-(((3-fluoropyridin-2-yl)oxy)methyl)pyrrolidin-1-yl)-4-oxo-1,4-dihydro-quinoline-3-carboxylic acid], the IC50 is at most 1 µM.

Take `CN(C)C1CN(c2ccc(-n3cc(C(=O)O)c(=O)c4cc(F)c(N5CC(c6ccc(O)nc6)C[C@@H]5COc5ncccc5Cl)cc43)cn2)C1` (mixture of isomers) [Compound 189, rac-7-((2R)-2-(((3-chloropyridin-2-yl)oxy)methyl)-4-(6-hydroxy-pyridin-3-yl)pyrrolidin-1-yl)-1-(6-(3-(dimethyl-amino)azetidin-1-yl)pyridin-3-yl)-6-fluoro-4-oxo-1,4-dihydro-quinoline-3-carboxylic acid]: the IC50 was at most 1 µM. `Cc1ccc(-n2cc(C(=O)O)c(=O)c3cc(F)c(N4CCC[C@@H]4COc4ccccn4)cc32)c(C)c1` [Compound 156, (R)-1-(2,4-dimethyl-phenyl)-6-fluoro-4-oxo-7-(2-((pyridin-2-yloxy)methyl)pyrrolidin-1-yl)-1,4-dihydro-quinoline-3-carboxylic acid]: the IC50 is 1 to 10 µM.

The same assay, now with this note: Lin28a-dependent Zcchc11 (Z11) TUTase assay; read-out: Potency Lin28a-dep Z11 IC50.
For `N#Cc1cc2c(=O)c(C(=O)O)cn(C3CCn4ccnc4C3)c2cc1N1CCC[C@@H]1COc1ncccc1Cl` (stereo partly drawn) [Example 540, 7-((R)-2-(((3-chloropyridin-2-yl)oxy)methyl)pyrrolidin-1-yl)-6-cyano-4-oxo-1-(5,6,7,8-tetrahydroimidazo [1,2-a]pyridin-7-yl)-1,4-dihydroquinoline-3-carboxylic acid], the IC50 was at most 1 µM. `O=C(O)c1cn(-c2ccc(O)c(Cl)c2)c2cc(N3CCC[C@@H]3COc3ccccn3)c(Cl)cc2c1=O` [Example 409, (R)-6-chloro-1-(3-chloro-4-hydroxyphenyl)-4-oxo-7-(2-((pyridin-2-yloxy)methyl)pyrrolidin-1-yl)-1,4-dihydroquinoline-3-carboxylic acid]: the IC50 is at most 1 µM.

Turning to `O=C(O)c1cn(-c2ccc3[nH]ccc3c2F)c2cc(N3CCC[C@@H]3COc3ccccn3)c(F)cc2c1=O` [Example 438, (R)-6-fluoro-1-(4-fluoro-1H-indol-5-yl)-4-oxo-7-(2-((pyridin-2-yloxy)methyl)pyrrolidin-1-yl)-1,4-dihydroquinoline-3-carboxylic acid], the IC50 is at most 1 µM. The same measure, in the same setting: in the case of `CN(C)C1CN(c2ccc(-n3cc(C(=O)O)c(=O)c4cc(Cl)c(N5CC6(CC6)C[C@@H]5COc5nc(OC6CC6)ccc5Cl)cc43)cn2)C1` [Example 675, (R)-6-chloro-7-(6-(((3-chloro-6-cyclopropoxy-pyridin-2-yl)oxy)methyl)-5-azaspiro[2.4]heptan-5-yl)-1-(6-(3-(dimethylamino)azetidin-1-yl)pyridin-3-yl)-4-oxo-1,4-dihydroquinoline-3-carboxylic acid] it was at most 1 µM; in that of `O=C(O)c1cn(-c2ccc(F)c(F)c2)c2cc(N3CCC[C@@H]3COc3ccccn3)c(F)cc2c1=O` [Example 379, (R)-1-(3,4-difluorophenyl)-6-fluoro-4-oxo-7-(2-((pyridin-2-yloxy)methyl)pyrrolidin-1-yl)-1,4-dihydroquinoline-3-carboxylic acid], 1 to 10 µM; in that of `Cc1cc2c(=O)c(C(=O)O)cn(-c3ccc(N4CC(N(C)C)C4)nc3)c2cc1N1C[C@@H](F)C[C@@H]1COc1ncccc1Cl` [Example 467, 7-((2R,4S)-2-(((3-chloropyridin-2-yl)oxy)methyl)-4-fluoropyrrolidin-1-yl)-1-(6-(3-(dimethylamino)azetidin-1-yl)pyridin-3-yl)-6-methyl-4-oxo-1,4-dihydroquinoline-3-carboxylic acid], at most 1 µM. For `CN(C)C1CN(c2ccc(-n3cc(C(=O)O)c(=O)c4cc(F)c(N5CCC[C@]5(C)COc5ncccc5Cl)nc43)cn2)C1` [Example 620, (R)-7-(2-(((3-chloropyridin-2-yl)oxy)methyl)-2-methylpyrrolidin-1-yl)-1-(6-(3-(dimethylamino)azetidin-1-yl)pyridin-3-yl)-6-fluoro-4-oxo-1,4-dihydro-1,8-naphthyridine-3-carboxylic acid], the IC50 was at most 1 µM.

As for `O=C(O)c1cn(-c2cnccn2)c2cc(N3C[C@H](F)C[C@@H]3COc3ncccc3Cl)c(Cl)cc2c1=O` [Example 590, 6-chloro-7-((2R,4R)-2-(((3-chloropyridin-2-yl)oxy)methyl)-4-fluoropyrrolidin-1-yl)-4-oxo-1-(pyrazin-2-yl)-1,4-dihydroquinoline-3-carboxylic acid], the IC50 is at most 1 µM. On to `Cc1cccnc1OC[C@H]1CCCN1c1cc2c(cc1Cl)c(=O)c(C(=O)O)cn2C1(C)CCC1` [Example 455, (R)-6-chloro-1-(1-methylcyclobutyl)-7-(2-(((3-methylpyridin-2-yl)oxy)methyl)pyrrolidin-1-yl)-4-oxo-1,4-dihydroquinoline-3-carboxylic acid], for which the IC50 lay in the range of 1 to 10 µM. As to `COc1ccc(Cl)c(OC[C@H]2CC(C)(C)CN2c2cc3c(cc2Cl)c(=O)c(C(=O)O)cn3-c2ccc(N)nc2)n1` [Example 649, (R)-1-(6-aminopyridin-3-yl)-6-chloro-7-(2-(((3-chloro-6-methoxypyridin-2-yl)oxy)methyl)-4,4-dimethylpyrrolidin-1-yl)-4-oxo-1,4-dihydroquinoline-3-carboxylic acid], the IC50 is at most 1 µM. In the case of `O=C(O)c1cn(-c2ccc(O)cc2Cl)c2cc(N3CCC[C@@H]3COc3ccccn3)c(F)cc2c1=O` [Example 384, (R)-1-(2-chloro-4-hydroxyphenyl)-6-fluoro-4-oxo-7-(2-((pyridin-2-yloxy)methyl)pyrrolidin-1-yl)-1,4-dihydroquinoline-3-carboxylic acid], the IC50 fell in the range of 1 to 10 µM. Still for that read-out and setting: for `O=C(O)c1cn(C2CCNCC2)c2cc(N3CCC[C@@H]3COc3ncccc3Cl)c(Cl)cc2c1=O` [Example 368, 6-chloro-7-[(2R)-2-{[(3-chloropyridin-2-yl)oxy]methyl}pyrrolidin-1-yl]-4-oxo-1-(piperidin-4-yl)-1,4-dihydroquinoline-3-carboxylic acid] the value was 1 to 10 µM.

These data come from US12662491B2 (Redona Therapeutics, Inc., priority 2020, dated 2026).
